Assay results as given in US20220267260A1, “COMPOUNDS CONTAINING A SULFONIC GROUP AS KAT INHIBITORS” (Epizyme, Inc., priority 2016, published 2022).
pIC50: −log10 of the molar value.

Legend:
KAT5 = molecular target: T1, KAT5 (Homo sapiens, UniProt Q92993); assay: KAT5 enzyme inhibition assay (SAMDI mass spectrometry); type: biochemical; settings: His-TEV-FL KAT5-Flag enzyme construct
T1 construct: His-TEV tag (N, cleaved yes); made in house

KAT6A = molecular target: T2, KAT6A (Homo sapiens, UniProt Q92794); assay: KAT6A enzyme inhibition assay (SAMDI mass spectrometry); type: biochemical; settings: His-TEV-KAT6A 501-784 enzyme construct
T2 construct: His-TEV tag (N, cleaved yes); made in house
T2 sequence (Q92794 with tags, fused parts or gaps): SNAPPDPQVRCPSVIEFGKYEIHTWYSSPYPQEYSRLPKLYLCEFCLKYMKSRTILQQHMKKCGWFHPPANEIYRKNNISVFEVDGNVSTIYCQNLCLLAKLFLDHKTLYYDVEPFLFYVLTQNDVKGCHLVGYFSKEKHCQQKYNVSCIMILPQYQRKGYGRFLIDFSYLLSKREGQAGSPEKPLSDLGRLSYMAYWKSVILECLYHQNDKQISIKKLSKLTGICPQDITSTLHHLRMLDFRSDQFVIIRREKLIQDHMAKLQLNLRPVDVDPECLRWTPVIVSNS

T1 sequence (Q92993 with tags, fused parts or gaps): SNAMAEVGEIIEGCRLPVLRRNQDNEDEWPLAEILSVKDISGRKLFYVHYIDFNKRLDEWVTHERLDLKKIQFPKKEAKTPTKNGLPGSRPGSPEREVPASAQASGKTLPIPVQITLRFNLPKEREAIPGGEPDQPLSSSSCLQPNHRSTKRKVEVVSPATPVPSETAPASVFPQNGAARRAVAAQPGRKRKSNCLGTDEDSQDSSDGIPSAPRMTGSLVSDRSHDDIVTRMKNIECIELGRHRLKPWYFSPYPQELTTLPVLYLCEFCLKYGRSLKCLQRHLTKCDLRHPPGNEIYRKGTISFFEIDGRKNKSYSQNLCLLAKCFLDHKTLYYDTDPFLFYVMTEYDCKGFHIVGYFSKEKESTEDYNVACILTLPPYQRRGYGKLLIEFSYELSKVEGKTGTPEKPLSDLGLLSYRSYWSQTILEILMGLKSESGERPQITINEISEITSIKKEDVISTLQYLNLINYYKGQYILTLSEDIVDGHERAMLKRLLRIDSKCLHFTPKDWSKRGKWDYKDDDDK

pIC50 (KAT5)	pIC50 (KAT6A)	SMILES
4.30 to 5.00	4.30 to 5.00	Cc1cc(-c2ccccc2)cc(C(=O)NNS(=O)(=O)C2CCNC2)c1F (stereo not drawn) [Compound I-23]
4.30 to 5.00	4.30 to 5.00	Cc1cc(-c2ccccc2)cc(C(=O)NNS(=O)(=O)C2CCN(Cc3ccc(Cl)cc3)C2)c1F (stereo not drawn) [Compound I-24]
4.30 to 5.00	4.30 to 5.00	COc1ccccc1CN1CCC(S(=O)(=O)NNC(=O)c2cc(-c3ccccc3)cc(C)c2F)C1 (stereo not drawn) [Compound I-25]
≥ 5.00	≥ 5.00	COc1cccc(CN2CCC(S(=O)(=O)NNC(=O)c3cc(-c4ccccc4)cc(C)c3F)C2)c1 (stereo not drawn) [Compound I-26]
4.30 to 5.00	4.30 to 5.00	COc1ccc(CN2CCC(S(=O)(=O)NNC(=O)c3cc(-c4ccccc4)cc(C)c3F)C2)cc1 (stereo not drawn) [Compound I-27]
< 4.00	< 4.00	Cc1cc(-c2ccccc2)cc(C(=O)NNS(=O)(=O)C2CN(Cc3cccc(Cl)c3)C2)c1F [Compound I-28]
≥ 5.00	≥ 5.00	Cc1cc(-c2ccccc2)cc(C(=O)NNS(=O)(=O)C2CCN(Cc3ccccc3Cl)C2)c1F (stereo not drawn) [Compound I-29]
4.30 to 5.00	4.30 to 5.00	Cc1cc(-c2ccccc2)cc(C(=O)NNS(=O)(=O)C2CCN(Cc3cccc(Cl)c3)C2)c1F (stereo not drawn) [Compound I-30]
4.00 to 4.30	4.30 to 5.00	Cc1cc(-c2ccccc2)cc(C(=O)NNS(=O)(=O)C2CCN(C)C2)c1F (stereo not drawn) [Compound I-31]
4.30 to 5.00	≥ 5.00	Cc1cc(-c2ccccc2)cc(C(=O)NNS(=O)(=O)C2CCN(C(=O)c3ccccc3)C2)c1F (stereo not drawn) [Compound I-32]
4.30 to 5.00	4.30 to 5.00	Cc1cc(-c2ccccc2)cc(C(=O)NNS(=O)(=O)C2CCN(Cc3ccccc3)C2)c1F (stereo not drawn) [Compound I-33]
4.30 to 5.00	4.30 to 5.00	Cc1cc(-c2ccccc2)cc(C(=O)NNS(=O)(=O)C2CN(C(=O)c3ccccc3)C2)c1F [Compound I-34]
4.30 to 5.00	4.30 to 5.00	Cc1cc(-c2ccccc2)cc(C(=O)NNS(=O)(=O)C2CCN(CCc3ccccc3)C2)c1F (stereo not drawn) [Compound I-36]
4.30 to 5.00	4.30 to 5.00	Cc1cc(-c2ccccc2)cc(C(=O)NNS(=O)(=O)C2CN(Cc3ccccc3Cl)C2)c1F [Compound I-37]
4.30 to 5.00	< 4.00	Cc1cccc(C(=O)NNS(=O)(=O)Cc2ccccc2)c1F [Compound I-39]
4.00 to 4.30	4.30 to 5.00	CC(=O)N1CC(S(=O)(=O)NNC(=O)c2cc(-c3ccccc3)cc(C)c2F)C1 [Compound I-40]
4.00 to 4.30	4.30 to 5.00	Cc1cc(-c2ccccc2)cc(C(=O)NNS(=O)(=O)C2CN(CCO)C2)c1F [Compound I-42]
4.00 to 4.30	4.30 to 5.00	COCCN1CC(S(=O)(=O)NNC(=O)c2cc(-c3ccccc3)cc(C)c2F)C1 [Compound I-43]
< 4.00		O=C(NNS(=O)(=O)c1ccc2ccccc2c1)c1ccccc1 [Compound I-146]
≥ 5.00		Cc1cc(-c2ccccc2)cc(C(=O)NNS(=O)(=O)c2ccccc2)c1F [Compound I-157]
< 4.00		O=C(NNS(=O)(=O)c1ccccc1F)c1ccccc1 [Compound I-163]
< 4.00		COc1ccc(S(=O)(=O)NNC(=O)c2ccccc2F)cc1 [Compound I-179]
< 4.00		O=C(NNS(=O)(=O)c1ccccc1)c1ccc(Cl)cc1 [Compound I-181]
< 4.00		COc1cccc(C(=O)NNS(=O)(=O)c2ccccc2)c1 [Compound I-182]
< 4.00		O=C(NNS(=O)(=O)c1ccccc1)c1cccc(F)c1 [Compound I-191]
< 4.00		Cc1cc(-c2ccccc2)cc(C(=O)NNS(=O)(=O)c2cccc(C3CC3)c2)c1F [Compound I-201]
< 4.00		Cc1cc(-c2ccccc2)cc(C(=O)NNS(=O)(=O)c2cccc(C(C)C)c2)c1F [Compound I-218]
4.00 to 4.30		O=C(NNS(=O)(=O)c1ccc2ccccc2c1)c1ccccc1F [Compound I-238]
≥ 5.00		O=C(NNS(=O)(=O)CC1CCOCC1)c1cc(C2CCCO2)cc(Cl)c1F (stereo not drawn) [Compound I-506]
< 4.00		CC(C)n1nc(CNC(=O)CNS(=O)(=O)c2ccccc2)c2ccccc21 [Compound I-525]

More lines, now with the values behind:

SMILES	pIC50 (KAT5)	pIC50 (KAT6A)
Cc1cc(-c2ccccc2)cc(C(=O)NNS(C)(=O)=O)c1F [Compound I-1]	4.00 to 4.30	4.30 to 5.00
CCS(=O)(=O)NNC(=O)c1cc(-c2ccccc2)cc(C)c1F [Compound I-2]	4.30 to 5.00	4.30 to 5.00
Cc1cc(-c2ccccc2)cc(C(=O)NNS(=O)(=O)C(C)C)c1F [Compound I-3]	4.30 to 5.00	4.00 to 4.30
Cc1cc(-c2ccccc2)cc(C(=O)NNS(=O)(=O)C2CC2)c1F [Compound I-4]	4.00 to 4.30	4.00 to 4.30
Cc1cc(-c2ccccc2)cc(C(=O)NNS(=O)(=O)Cc2cccc(Cl)c2)c1F [Compound I-5]	≥ 5.00	≥ 5.00
Cc1cc(-c2ccccc2)cc(C(=O)NNS(=O)(=O)Cc2ccc(Cl)cc2)c1F [Compound I-6]	≥ 5.00	≥ 5.00
Cc1cc(-c2ccccc2)cc(C(=O)NNS(=O)(=O)C2CCC2)c1F [Compound I-7]	4.30 to 5.00	4.30 to 5.00
Cc1cc(-c2ccccc2)cc(C(=O)NNS(=O)(=O)Cc2ccccc2Cl)c1F [Compound I-8]	≥ 5.00	≥ 5.00
Cc1cc(-c2ccccc2)cc(C(=O)NNS(=O)(=O)Cc2ccccc2)c1F [Compound I-9]	≥ 5.00	≥ 5.00
O=C(NNS(=O)(=O)c1ccccc1)c1c(F)ccc(-c2ccccc2)c1F [Compound I-10]	< 4.00	< 4.00
O=S(=O)(NNc1nc2ccccc2[nH]1)c1ccccc1 [Compound I-12]	< 4.00	< 4.00
Cn1c(NNS(=O)(=O)c2ccccc2)nc2ccccc21 [Compound I-13]	< 4.00	< 4.00
O=C(NNS(=O)(=O)c1ccccc1)c1cc(-c2ccccc2)cc2cc[nH]c12 [Compound I-14]	4.30 to 5.00	4.30 to 5.00
CC1CCCC(C)N1C(=O)NNS(=O)(=O)c1ccccc1 (stereo not drawn) [Compound I-15]	< 4.00	< 4.00
O=C(NNS(=O)(=O)c1ccccc1)c1cc(-c2ccccc2)cc2[nH]ccc12 [Compound I-16]	< 4.00	4.00 to 4.30
Cn1ccc2c(C(=O)NNS(=O)(=O)c3ccccc3)cc(-c3ccccc3)cc21 [Compound I-17]	4.00 to 4.30	< 4.00
Cc1cc(-c2ccccc2)cc(C(=O)NNS(=O)(=O)C2CCCCC2)c1F [Compound I-18]	≥ 5.00	≥ 5.00
Cc1cc(-c2ccccc2)cc(C(=O)NNS(=O)(=O)C2CCCC2)c1F [Compound I-19]	≥ 5.00	4.30 to 5.00
Cn1ncc2c(C(=O)NNS(=O)(=O)c3ccccc3)cc(-c3ccccc3)cc21 [Compound I-20]	< 4.00	< 4.00
Cc1cc(-c2ccccc2)cc(C(=O)NNS(=O)(=O)C(C)(C)C)c1F [Compound I-21]	< 4.00	< 4.00
COc1ccccc1CN1CC(S(=O)(=O)NNC(=O)c2cc(-c3ccccc3)cc(C)c2F)C1 [Compound I-22, N′-(4-fluoro-5-methyl-[1,1′-biphenyl]-3-carbonyl)-1-(2-methoxybenzyl)azetidine-3-sulfonohydrazide]	4.30 to 5.00	4.30 to 5.00
